From ChEMBL document CHEMBL5143564, “PES derivative PESA is a potent tool to globally profile cellular targets of PES” (Bioorg Med Chem Lett, 2022)
The source made the active and inactive calls.

Experiments:
DOHH-2 [1] = test: Induction of apoptosis in human DOHH-2 cells assessed as increase in cleaved caspase-3 expression at 0.5 to 8 uM measured after 24 hrs by Western blot analysis; type: functional, cell-based; settings: dose 0.5-8 µM
Plastin-2 (Homo sapiens) [2] = target: T1, Plastin-2 (Homo sapiens) (UniProt P13796); test: Binding affinity to plastin-2 in human MDA-MB-453 cells measured after 6 hrs by pull-down assay; type: cell-based; settings: dose <= 20.0 µM, DDE = dose-dependent effect
T1 sequence (whole entry): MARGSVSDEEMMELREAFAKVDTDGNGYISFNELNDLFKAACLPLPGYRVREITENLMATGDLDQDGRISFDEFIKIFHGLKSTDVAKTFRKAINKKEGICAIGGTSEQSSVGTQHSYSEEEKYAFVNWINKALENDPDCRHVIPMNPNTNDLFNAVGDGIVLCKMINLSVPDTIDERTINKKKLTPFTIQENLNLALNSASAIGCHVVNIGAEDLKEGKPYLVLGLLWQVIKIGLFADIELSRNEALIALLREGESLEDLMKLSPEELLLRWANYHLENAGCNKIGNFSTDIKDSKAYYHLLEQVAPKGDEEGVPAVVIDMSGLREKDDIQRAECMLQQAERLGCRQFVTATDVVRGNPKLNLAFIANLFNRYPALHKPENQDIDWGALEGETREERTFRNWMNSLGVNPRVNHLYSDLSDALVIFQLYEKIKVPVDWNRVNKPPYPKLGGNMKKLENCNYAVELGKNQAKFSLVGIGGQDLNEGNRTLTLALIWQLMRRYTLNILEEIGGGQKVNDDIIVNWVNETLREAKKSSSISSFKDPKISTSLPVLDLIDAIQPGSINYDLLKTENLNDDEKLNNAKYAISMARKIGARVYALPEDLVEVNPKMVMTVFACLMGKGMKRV

[3] = target: T2, Protein disulfide-isomerase A3 (Homo sapiens) (UniProt P30101); test: Binding affinity to PDIA3 in human DOHH-2 cells by MS analysis; type: cell-based
T2 sequence (whole entry): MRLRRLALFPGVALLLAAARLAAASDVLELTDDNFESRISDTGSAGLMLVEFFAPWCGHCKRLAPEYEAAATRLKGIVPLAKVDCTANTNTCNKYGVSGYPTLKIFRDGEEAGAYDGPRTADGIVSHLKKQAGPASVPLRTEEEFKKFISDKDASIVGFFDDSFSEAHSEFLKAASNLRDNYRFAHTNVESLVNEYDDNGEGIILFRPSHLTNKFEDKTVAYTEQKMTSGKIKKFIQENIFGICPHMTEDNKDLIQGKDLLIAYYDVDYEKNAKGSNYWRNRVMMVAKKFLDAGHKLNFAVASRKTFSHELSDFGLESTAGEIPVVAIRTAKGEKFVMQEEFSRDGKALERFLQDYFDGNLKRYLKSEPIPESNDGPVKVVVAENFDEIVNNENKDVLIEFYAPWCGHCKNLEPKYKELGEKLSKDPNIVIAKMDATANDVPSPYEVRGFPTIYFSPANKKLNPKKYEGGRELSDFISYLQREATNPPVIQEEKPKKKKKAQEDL

[4] = target: T3, Protein disulfide-isomerase A4 (Homo sapiens) (UniProt P13667); test: Binding affinity to PDIA4 in human MDA-MB-453 cells measured after 6 hrs by pull-down assay; type: cell-based; settings: dose <= 20.0 µM, DDE = dose-dependent effect
T3 sequence (whole entry): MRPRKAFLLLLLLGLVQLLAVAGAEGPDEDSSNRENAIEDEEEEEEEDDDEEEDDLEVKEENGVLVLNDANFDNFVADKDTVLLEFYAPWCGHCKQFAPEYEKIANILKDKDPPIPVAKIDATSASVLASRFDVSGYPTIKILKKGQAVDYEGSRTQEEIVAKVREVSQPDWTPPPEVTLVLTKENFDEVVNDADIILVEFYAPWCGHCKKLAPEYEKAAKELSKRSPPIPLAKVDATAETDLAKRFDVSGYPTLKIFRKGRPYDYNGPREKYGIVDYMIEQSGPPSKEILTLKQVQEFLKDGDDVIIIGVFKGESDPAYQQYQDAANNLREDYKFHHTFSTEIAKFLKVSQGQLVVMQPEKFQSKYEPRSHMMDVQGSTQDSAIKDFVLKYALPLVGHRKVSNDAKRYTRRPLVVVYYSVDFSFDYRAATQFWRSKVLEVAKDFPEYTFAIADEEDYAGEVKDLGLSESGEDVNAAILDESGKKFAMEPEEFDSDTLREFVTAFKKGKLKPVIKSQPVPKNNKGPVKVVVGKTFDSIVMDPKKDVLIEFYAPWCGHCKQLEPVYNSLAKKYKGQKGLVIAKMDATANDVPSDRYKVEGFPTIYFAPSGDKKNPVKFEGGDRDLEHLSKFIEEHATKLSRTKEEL

[5] = target: T4, Thioredoxin-dependent peroxide reductase, mitochondrial (Homo sapiens) (UniProt P30048); test: Binding affinity to PRDX3 in human DOHH-2 cells by MS analysis; type: cell-based
T4 sequence (whole entry): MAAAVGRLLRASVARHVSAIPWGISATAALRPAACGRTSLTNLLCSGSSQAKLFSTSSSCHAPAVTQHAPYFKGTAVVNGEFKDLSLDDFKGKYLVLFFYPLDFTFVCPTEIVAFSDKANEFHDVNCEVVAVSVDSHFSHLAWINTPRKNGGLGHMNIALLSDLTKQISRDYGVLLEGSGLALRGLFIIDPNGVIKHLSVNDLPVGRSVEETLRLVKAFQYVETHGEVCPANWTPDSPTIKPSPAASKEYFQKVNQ

[6] = target: Tubulin beta (Homo sapiens) (UniProt P68371+Q9H4B7+Q13509+P04350+Q3ZCM7+P07437+Q13885+Q9BVA1+Q9BUF5+A6NNZ2); test: Binding affinity to beta-tubulin in human MDA-MB-453 cells measured after 6 hrs by pull-down assay; type: cell-based; settings: dose <= 20.0 µM, DDE = dose-dependent effect
[7] = target: T5, Peroxiredoxin-6 (Homo sapiens) (UniProt P30041); test: Binding affinity to PRDX6 in human DOHH-2 cells measured after 6 hrs by pull-down assay; type: cell-based; settings: DDE = dose-dependent effect
T5 sequence (whole entry): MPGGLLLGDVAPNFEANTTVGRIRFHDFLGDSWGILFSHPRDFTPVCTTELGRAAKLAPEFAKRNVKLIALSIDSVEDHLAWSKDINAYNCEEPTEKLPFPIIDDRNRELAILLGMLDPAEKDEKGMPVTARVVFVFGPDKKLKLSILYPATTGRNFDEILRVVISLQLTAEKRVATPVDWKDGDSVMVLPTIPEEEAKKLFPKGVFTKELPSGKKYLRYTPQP

Plastin-2 (Homo sapiens) [8] = target: T1, Plastin-2 (Homo sapiens); test: Binding affinity to plastin-2 in human DOHH-2 cells measured after 6 hrs by pull-down assay; type: cell-based; settings: DDE = dose-dependent effect
DOHH-2 [9] = test: Up regulation of HSP90alpha expression in human DOHH-2 cells at 0.5 to 8 uM measured after 24 hrs by Western blot analysis; type: functional, cell-based; settings: dose 0.5-8 µM
Jurkat = test: Cytotoxicity against human Jurkat T cells measured after 72 hrs; type: functional, cell-based
[10] = target: T3, Protein disulfide-isomerase A4 (Homo sapiens); test: Binding affinity to PDIA4 in human DOHH-2 cells measured after 6 hrs by pull-down assay; type: cell-based; settings: DDE = dose-dependent effect
Homo sapiens = organism: Homo sapiens; test: Binding affinity to ADP-bound full-length human HSP70 assessed as Cys603 adduct formation at SBDalpha domain by LC-MS/MS analysis
[11] = target: Glutathione S-transferase P (Homo sapiens) (UniProt P09211); test: Binding affinity to GSTP1 in human DOHH-2 cells measured after 6 hrs by pull-down assay; type: cell-based; settings: DDE = dose-dependent effect

Measured: Activity

Chain of Glutathione S-transferase P (Homo sapiens) (P09211 2-210 limits assumed): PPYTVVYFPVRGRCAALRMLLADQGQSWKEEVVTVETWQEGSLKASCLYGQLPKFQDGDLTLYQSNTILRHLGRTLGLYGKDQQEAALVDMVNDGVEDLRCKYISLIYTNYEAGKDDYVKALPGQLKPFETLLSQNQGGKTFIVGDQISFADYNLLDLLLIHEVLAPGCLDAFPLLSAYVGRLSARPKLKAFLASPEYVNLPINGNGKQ

C#Cc1cccc(C#CS(N)(=O)=O)c1
active: DOHH-2 [1] | Plastin-2 (Homo sapiens) [2] Dde | [3] | [4] Dde | [5] | [6] Dde | [7] Dde | Plastin-2 (Homo sapiens) [8] Dde | DOHH-2 [9] | Jurkat | [10] Dde | Homo sapiens | [11] Dde
